Source: ChEMBL document CHEMBL1201862, “PubChem BioAssay data set” (2004)
Calls of active or inactive are those of the source.

Experiments:
[1] = NIH-3T3 fibroblast cytotoxicity, dose response, cytotoxicity control, cell-based, fluorescence, Alamar Blue, secondary assay (AID 2327); format: functional;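 also: NIH-3T3 mouse fibroblasts cultured with fluconazole at 8 µg/mL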
[2] = fluconazole-exposed Candida albicans growth modulators – fluorescence, retest, confirmation (AID 2467); format: functional, cell-based
[3] = target: Serine/threonine-protein phosphatase (Candida dubliniensis (strain CD36 / CBS 7987 / NCPF 3949 / NRRLY-17841) (Yeast), UniProt B9W6M3); assay: blockers of CaCl2-induced CDRE-lacZ signaling – S. cerevisiae, luminescence, secondary, dose response (AID 2388); format: functional, cell-based;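 also: yeast reporter cells carrying a calcineurin-responsive lacZ construct stimulated with calcium chloride; luminescent beta-galactosidase reporter signal in whole cells rather than isolated phosphatase activity; potency for inhibition where a drop in reporter signal means calcineurin blockade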
Serine/threonine-protein phosphatase, sequence (B9W6M3 whole entry): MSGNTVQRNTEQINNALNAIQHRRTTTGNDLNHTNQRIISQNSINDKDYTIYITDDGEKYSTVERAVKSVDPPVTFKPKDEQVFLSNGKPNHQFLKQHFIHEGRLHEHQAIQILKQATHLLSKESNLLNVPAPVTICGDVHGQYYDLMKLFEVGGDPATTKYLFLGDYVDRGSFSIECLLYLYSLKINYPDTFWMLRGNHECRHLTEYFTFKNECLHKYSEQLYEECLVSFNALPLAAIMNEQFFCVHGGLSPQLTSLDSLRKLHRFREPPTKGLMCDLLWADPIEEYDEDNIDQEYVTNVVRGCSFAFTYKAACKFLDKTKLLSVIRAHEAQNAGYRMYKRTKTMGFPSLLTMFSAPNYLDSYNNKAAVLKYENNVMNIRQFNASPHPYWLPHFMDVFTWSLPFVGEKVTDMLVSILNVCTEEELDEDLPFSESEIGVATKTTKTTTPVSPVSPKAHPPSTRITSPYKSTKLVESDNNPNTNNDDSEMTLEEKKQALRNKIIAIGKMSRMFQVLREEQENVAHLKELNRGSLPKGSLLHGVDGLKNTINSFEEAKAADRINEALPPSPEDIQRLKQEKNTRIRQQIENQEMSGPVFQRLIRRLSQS

[4] = target: ATP-dependent molecular chaperone HSP82 (Candida albicans (strain WO-1) (Yeast), UniProt C4YTQ8); assay: steroid-induced GRE reporter decrease in yeast – S. cerevisiae, luminescence, Hsp90 inhibitor project, dose response (AID 2400); format: functional, cell-based;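 also: beta-galactosidase luminescence from glucocorticoid response element reporter as proxy for Hsp90 function; inhibitor potency where signal loss means Hsp90 inhibition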
ATP-dependent molecular chaperone HSP82, sequence (C4YTQ8 whole entry): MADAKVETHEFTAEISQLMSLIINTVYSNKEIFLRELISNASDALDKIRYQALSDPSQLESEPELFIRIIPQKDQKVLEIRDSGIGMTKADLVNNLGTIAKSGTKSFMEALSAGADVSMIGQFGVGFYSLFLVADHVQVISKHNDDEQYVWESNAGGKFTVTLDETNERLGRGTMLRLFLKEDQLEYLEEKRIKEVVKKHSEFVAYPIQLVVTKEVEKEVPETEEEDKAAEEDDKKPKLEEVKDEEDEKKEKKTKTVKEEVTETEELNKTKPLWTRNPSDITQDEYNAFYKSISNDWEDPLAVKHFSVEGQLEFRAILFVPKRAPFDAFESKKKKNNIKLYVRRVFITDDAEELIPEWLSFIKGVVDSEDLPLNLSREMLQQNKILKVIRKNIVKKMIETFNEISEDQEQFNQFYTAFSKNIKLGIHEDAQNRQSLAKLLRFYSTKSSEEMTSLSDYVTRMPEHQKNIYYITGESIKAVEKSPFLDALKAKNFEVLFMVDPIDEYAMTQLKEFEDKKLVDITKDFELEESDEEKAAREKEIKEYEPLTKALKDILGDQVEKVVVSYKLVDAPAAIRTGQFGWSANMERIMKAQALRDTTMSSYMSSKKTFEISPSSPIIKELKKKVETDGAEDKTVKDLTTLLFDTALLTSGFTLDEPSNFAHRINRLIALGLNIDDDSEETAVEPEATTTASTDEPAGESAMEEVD

[5] = Luminescence-based cell-based high throughput dose response assay to identify activators of the DAF-12 from the parasite S. stercoralis (ssDAF-12).; format: functional
[6] = target: T1, Oxysterols receptor LXR-beta (Homo sapiens, UniProt P55055); format: functional, cell-based;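 also: Cell-based luminescence dose-response assay of agonist activity at LXR, run as a confirmatory counterscreen to a daf-12 agonist screen; HEK293 cells with Gal4-LXR fusion and GAL4-driven luciferase reporter; agonist potency from rising luciferase signal of a Gal4-LXR reporter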
T1 sequence (P55055 whole entry): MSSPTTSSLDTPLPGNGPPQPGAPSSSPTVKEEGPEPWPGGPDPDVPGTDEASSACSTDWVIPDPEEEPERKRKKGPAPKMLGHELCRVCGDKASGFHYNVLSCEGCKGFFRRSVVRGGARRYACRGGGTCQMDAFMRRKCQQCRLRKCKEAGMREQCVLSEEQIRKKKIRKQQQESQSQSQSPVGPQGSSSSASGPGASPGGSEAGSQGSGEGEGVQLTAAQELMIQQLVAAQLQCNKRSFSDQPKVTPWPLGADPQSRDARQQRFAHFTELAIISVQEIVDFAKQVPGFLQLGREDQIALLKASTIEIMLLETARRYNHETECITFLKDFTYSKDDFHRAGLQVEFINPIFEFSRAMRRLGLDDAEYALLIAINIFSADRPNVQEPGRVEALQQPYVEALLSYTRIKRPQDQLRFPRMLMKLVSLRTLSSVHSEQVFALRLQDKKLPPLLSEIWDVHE

[7] = microbe, parasite or virus in culture; format: functional; settings: Mycobacterium tuberculosis
[8] = viability of PTEN-deleted HCT116 cells – cell-based, HCT116 PTEN knockout, dose response (AID 1047); format: functional;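 also: HCT116 colon tumor cells with PTEN knocked out; cells exposed to compound for 60 hours before readout; potency for loss of cell viability measured by luminescence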
[9] = viability of HCT116 lacking mutant beta-catenin – cell-based, human colon tumor, dose response (AID 1045); format: functional;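 also: HCT116 colon tumor cells with beta catenin knocked out; cells exposed to compound for 60 hours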
[10] = target: T2, Microphthalmia-associated transcription factor (Homo sapiens, UniProt O75030); assay: reducers of TRPM1 reporter luminescence, concentration series – cell-based, SK-MEL-5, cherry-picked, set 3, MITF inhibitor project, dose response (AID 493073); format: functional;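 also: SK-MEL-5 melanoma cells with luciferase driven by the MITF target TRPM1 promoter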
T2 sequence (O75030 whole entry): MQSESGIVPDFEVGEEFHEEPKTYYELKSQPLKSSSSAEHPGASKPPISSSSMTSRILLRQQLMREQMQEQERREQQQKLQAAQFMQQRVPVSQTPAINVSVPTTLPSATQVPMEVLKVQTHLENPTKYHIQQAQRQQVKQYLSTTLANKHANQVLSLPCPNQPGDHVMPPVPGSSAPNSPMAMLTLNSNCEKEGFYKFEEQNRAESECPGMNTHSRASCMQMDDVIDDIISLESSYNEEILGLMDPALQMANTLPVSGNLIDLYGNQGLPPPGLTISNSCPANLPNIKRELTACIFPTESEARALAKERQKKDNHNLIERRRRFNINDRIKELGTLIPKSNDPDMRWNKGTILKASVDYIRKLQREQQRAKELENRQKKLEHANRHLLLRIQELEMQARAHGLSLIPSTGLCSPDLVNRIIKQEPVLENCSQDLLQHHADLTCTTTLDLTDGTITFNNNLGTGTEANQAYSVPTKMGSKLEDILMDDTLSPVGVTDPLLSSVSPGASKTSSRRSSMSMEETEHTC

INS1 = assay: INS-1E survival protection against cytokine death – cell-based, luminescence, retest, dose response (AID 449756); format: functional; settings: Rattus norvegicus;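 also: cell death triggered by IL-1 beta plus TNF-alpha plus IFN-gamma mixture; protective hits raise ATP signal compared with cytokine alone wells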
A-375 = assay: proliferation inhibition in MITF-low A375 cells – cell-based, cherry-pick samples, set 2, counter-screen for MITF modulator project, dose response (AID 540335); format: functional; settings: Homo sapiens
[11] = target: Cystic fibrosis transmembrane conductance regulator/Golgi-associated PDZ and coiled-coil motif-containing protein (Homo sapiens, UniProt P13569+Q9HD26); assay: potency against CAL PDZ-peptide interaction – biochemical, fluorescence polarization, Cerulean-tagged CAL PDZ, cherry-picks, dose response (AID 504773)
Cystic fibrosis transmembrane conductance regulator/Golgi-associated PDZ and coiled-coil motif-containing protein, sequence (P13569 whole entry, other chains not shown): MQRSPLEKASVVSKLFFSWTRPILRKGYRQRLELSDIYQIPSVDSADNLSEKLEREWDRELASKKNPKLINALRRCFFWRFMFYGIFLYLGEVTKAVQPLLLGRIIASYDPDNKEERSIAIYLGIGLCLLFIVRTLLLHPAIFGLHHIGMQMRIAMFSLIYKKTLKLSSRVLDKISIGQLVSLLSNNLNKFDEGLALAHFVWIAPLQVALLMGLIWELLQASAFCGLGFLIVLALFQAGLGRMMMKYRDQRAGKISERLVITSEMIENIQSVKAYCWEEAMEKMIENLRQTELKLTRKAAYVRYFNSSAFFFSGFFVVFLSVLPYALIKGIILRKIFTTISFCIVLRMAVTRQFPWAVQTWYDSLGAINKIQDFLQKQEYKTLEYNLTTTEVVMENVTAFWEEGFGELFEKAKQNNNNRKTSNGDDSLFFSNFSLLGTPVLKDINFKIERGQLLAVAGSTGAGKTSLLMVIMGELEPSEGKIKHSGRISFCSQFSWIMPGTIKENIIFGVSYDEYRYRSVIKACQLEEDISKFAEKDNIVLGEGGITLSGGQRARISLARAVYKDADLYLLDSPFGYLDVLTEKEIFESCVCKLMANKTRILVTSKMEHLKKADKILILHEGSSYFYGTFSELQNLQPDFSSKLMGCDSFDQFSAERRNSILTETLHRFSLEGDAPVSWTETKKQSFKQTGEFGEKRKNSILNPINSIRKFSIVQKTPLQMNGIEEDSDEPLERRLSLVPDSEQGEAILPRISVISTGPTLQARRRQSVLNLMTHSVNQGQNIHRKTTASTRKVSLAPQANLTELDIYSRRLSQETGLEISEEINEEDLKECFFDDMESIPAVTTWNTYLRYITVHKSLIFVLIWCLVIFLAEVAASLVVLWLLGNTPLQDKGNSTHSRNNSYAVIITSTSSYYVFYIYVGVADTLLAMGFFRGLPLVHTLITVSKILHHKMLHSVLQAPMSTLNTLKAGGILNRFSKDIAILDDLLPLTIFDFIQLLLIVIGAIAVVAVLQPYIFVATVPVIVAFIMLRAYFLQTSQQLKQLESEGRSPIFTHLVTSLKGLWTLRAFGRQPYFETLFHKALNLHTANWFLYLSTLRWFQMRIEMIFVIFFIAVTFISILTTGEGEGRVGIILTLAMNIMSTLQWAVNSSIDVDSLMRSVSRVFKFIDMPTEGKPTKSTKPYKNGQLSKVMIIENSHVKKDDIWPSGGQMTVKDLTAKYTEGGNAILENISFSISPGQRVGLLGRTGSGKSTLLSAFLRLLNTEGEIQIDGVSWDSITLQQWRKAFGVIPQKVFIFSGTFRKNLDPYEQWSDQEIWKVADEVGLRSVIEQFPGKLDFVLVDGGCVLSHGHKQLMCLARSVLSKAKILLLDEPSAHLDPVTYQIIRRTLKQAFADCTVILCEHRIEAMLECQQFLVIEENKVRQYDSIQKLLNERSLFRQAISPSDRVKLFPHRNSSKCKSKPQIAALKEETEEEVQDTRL

Hexokinase HKDC1 [12] = target: T3, Hexokinase HKDC1 (Homo sapiens, UniProt Q2TB90); assay: inhibition of HKDC1 glucose phosphorylation – biochemical, W721R variant, dose response (AID 504729); format: functional
T3 sequence (Q2TB90 whole entry): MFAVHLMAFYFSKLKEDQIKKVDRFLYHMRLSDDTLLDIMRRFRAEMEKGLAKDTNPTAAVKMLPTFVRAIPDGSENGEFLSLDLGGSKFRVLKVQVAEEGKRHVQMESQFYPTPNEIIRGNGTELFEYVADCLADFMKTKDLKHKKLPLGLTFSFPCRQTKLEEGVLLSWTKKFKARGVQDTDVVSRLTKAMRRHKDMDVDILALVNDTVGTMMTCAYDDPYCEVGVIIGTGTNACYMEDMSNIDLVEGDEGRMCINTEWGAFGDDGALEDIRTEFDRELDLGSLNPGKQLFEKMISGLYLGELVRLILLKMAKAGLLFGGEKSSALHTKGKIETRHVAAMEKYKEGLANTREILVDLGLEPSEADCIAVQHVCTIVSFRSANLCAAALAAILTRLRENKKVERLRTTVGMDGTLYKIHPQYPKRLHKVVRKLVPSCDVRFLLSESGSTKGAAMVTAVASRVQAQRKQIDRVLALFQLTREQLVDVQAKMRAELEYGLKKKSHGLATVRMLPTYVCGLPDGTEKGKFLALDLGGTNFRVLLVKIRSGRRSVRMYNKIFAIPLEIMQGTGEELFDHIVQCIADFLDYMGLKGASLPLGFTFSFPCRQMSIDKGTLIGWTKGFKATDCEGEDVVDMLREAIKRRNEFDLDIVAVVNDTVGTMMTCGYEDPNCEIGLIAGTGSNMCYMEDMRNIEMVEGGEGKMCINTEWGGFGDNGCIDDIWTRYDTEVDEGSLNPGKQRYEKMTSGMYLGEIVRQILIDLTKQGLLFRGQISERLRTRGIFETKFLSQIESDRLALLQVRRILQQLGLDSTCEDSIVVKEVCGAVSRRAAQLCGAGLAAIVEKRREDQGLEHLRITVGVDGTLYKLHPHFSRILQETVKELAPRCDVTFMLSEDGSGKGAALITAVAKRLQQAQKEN

Hexokinase-1 = target: T4, Hexokinase-1 (Homo sapiens, UniProt P19367); assay: hexokinase 1 activity inhibitors, potency – biochemical, set 2, resazurin fluorescence coupled readout, selectivity assay for HKDC1 inhibitor project, SAR follow-up (AID 588356); format: functional
T4 sequence (P19367 whole entry): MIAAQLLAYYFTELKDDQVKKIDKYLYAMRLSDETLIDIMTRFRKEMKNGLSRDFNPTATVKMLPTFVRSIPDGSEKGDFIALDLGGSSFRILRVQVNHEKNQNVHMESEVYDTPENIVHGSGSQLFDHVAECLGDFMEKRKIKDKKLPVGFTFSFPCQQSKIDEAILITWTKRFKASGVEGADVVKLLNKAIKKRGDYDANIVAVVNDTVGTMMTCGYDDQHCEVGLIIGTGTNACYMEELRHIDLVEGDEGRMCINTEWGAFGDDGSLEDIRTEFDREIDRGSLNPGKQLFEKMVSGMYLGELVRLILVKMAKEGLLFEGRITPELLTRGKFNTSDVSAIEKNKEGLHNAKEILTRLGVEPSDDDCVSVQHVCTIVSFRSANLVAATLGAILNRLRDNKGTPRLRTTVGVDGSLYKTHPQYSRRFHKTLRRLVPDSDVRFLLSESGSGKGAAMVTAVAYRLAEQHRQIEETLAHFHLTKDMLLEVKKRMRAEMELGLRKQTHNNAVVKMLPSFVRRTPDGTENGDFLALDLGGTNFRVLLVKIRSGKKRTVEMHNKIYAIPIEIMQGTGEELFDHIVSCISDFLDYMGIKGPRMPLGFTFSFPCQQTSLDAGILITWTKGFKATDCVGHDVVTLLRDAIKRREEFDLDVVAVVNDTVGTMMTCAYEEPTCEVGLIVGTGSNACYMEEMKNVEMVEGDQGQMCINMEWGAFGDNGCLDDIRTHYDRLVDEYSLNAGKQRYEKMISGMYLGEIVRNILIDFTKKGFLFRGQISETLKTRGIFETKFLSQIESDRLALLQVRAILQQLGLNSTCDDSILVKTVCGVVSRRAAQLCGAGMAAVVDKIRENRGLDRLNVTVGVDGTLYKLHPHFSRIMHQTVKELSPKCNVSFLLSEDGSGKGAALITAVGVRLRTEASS

[13] = target: T5, Replicative DNA helicase DnaB (Mycobacterium tuberculosis, UniProt P9WMR3); assay: DnaB intein splicing inhibitors, dose response, biochemical, cell-free fluorescence (AID 449749); format: functional
T5 sequence (P9WMR3 whole entry): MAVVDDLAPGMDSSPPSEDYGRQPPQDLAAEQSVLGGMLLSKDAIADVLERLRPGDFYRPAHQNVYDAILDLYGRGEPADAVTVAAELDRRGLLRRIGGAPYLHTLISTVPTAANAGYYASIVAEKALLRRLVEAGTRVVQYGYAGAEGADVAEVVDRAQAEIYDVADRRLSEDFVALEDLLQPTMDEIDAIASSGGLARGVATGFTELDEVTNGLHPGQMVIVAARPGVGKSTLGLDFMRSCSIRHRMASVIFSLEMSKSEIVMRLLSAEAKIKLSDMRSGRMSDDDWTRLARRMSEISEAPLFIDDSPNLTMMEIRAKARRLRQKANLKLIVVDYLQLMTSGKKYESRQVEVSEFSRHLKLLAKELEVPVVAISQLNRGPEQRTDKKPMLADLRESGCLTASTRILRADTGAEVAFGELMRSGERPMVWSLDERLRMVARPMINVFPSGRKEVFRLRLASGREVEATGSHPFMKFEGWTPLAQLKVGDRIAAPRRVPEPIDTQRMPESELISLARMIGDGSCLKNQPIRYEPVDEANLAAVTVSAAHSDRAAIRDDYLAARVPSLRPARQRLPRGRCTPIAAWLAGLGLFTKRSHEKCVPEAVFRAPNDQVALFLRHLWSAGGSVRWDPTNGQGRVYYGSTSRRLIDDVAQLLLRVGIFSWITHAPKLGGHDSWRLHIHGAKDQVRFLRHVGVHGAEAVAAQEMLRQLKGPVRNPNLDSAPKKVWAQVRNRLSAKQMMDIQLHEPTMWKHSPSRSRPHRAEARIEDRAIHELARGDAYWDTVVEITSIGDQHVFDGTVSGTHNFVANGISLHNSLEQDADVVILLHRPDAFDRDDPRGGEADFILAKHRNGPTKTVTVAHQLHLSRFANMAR

Protein RecA = target: T6, Protein RecA (Mycobacterium tuberculosis, UniProt P9WHJ3); assay: Fluorescence Cell-Free Homogeneous Dose Retest to Identify Inhibitors of RecA-Intein Splicing Activity. [Related pubchem assays (depositor defined):AID2097, AID2223, AID489010, AID492950]; format: functional
T6 sequence (P9WHJ3 whole entry): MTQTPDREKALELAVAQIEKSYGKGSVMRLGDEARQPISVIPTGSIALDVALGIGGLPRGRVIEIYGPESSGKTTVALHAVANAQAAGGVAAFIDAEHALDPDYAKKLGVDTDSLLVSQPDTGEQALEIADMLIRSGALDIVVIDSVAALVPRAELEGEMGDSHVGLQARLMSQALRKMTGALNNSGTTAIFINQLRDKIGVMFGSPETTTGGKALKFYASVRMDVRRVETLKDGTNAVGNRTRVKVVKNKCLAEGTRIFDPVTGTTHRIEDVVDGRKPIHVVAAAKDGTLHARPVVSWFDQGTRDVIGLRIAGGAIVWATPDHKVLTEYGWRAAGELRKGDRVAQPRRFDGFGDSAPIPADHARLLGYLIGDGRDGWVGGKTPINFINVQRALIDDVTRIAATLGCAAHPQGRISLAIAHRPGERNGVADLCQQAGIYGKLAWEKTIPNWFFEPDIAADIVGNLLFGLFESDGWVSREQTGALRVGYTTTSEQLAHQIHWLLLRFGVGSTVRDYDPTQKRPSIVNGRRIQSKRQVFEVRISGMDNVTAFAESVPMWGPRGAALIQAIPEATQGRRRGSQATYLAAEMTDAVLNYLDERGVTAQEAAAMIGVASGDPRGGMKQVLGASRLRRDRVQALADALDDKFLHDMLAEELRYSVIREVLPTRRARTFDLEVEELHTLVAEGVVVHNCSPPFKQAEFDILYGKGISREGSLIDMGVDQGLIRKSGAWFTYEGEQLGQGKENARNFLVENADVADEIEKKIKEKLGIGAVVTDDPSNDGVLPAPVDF

Hexokinase HKDC1 [14] = target: T3, Hexokinase HKDC1; assay: analog inhibition of human HKDC1 activity – biochemical, set 2, SAR follow-up (AID 588355); format: functional
HEK293 = assay: cells; format: functional, cell-based; settings: Homo sapiens
[15] = target: Nuclear receptor subfamily 0 group B member 1 (Homo sapiens, UniProt P51843); assay: Luminescence-based cell-based high throughput dose response assay for inhibitors of the orphan nuclear receptor subfamily 0, group B, member 1 (DAX1; NR0B1). [Related pubchem assays (depositor defined):AID504766, AID504790]; format: functional
Nuclear receptor subfamily 0 group B member 1, sequence (P51843 whole entry): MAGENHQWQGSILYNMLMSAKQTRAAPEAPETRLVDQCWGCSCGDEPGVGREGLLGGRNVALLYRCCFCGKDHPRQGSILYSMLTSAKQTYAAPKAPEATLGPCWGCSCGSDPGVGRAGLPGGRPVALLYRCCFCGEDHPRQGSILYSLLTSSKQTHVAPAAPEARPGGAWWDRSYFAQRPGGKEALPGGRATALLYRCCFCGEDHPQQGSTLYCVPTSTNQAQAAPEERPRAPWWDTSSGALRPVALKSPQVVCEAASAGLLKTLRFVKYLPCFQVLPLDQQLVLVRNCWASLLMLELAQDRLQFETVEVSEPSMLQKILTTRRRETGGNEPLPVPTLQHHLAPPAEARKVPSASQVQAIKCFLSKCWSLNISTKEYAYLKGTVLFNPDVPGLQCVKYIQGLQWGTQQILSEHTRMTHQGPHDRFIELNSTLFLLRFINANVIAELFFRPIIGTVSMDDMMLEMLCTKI

CN1/C(=C/C(=O)c2cccs2)Sc2ccccc21
EC50 [1]: 14.7 µM (active)
EC50 [2]: 2.02 µM (active)
EC50 [3]: > 180 µM (inactive)
EC50 [4]: > 150 µM (inactive)
IC50 [5]: > 67.5 µM (inactive)
EC50 [6]: > 67.5 µM (inactive)
EC50 (cells): > 67.5 µM (inactive)

CC1CCC(C(C)C)C(OC(=O)Cn2c(-c3ccc(F)cc3)[n+](C)c3ccccc32)C1 (stereo unspecified)
CC50 [7]: 40 µM (active)
EC50 [8]: 4.98 µM (active)
EC50 [9]: 4.18 µM (active)
AC50 [10]: 5.57 µM (active)
AC50 (INS1): 3.69 µM (active)
AC50 (A-375): 47.2 µM (active)

CCOc1ccc2c(c1)C(NC(C)=O)C(=O)N2CCN1CCOCC1 (stereo unspecified)
AC50 [11]: 27.3 µM (active)
IC50 (Hexokinase HKDC1 [12]): 6.63 µM (active)
IC50 (Hexokinase-1): > 80 µM (inactive)
AC50 [13]: 27.8 µM (active)
EC50 (Protein RecA): 12.6 µM (active)
IC50 (Hexokinase HKDC1 [14]): 8.44 µM (active)

O=C(c1ccc(Br)cc1)c1coc2ccc(O)cc12
IC50 (HEK293): > 67.5 µM (inactive)
IC50 [15]: > 67.5 µM (inactive)
